Measurements reported in US6511670B1, “(poly)thiaalkynoic compounds and pharmaceutical/cosmetic compositions comprised thereof” (Societe L'Oreal S.A., priority 1999, dated 2003).

How the values were obtained:
Format in all cases: cell-based
PPAR-α = molecular target: T1, PPAR-α (Homo sapiens, UniProt Q07869); experiment: transactivation test of PPAR-type receptors (luciferase reporter, cotransfected HeLa cells), PPAR-α; conditions: HeLa cells cotransfected with PPAR-α expression vector and PPRE-luciferase reporter, 24 hours, n.a. = not active; for AC50: concentration giving 50% of the activity of the reference molecule; for α Ymax %: relative to Reference 1
T1 construct: expressed in transfected cells; host or cells: HeLa cells
T1 sequence (Q07869 1-468): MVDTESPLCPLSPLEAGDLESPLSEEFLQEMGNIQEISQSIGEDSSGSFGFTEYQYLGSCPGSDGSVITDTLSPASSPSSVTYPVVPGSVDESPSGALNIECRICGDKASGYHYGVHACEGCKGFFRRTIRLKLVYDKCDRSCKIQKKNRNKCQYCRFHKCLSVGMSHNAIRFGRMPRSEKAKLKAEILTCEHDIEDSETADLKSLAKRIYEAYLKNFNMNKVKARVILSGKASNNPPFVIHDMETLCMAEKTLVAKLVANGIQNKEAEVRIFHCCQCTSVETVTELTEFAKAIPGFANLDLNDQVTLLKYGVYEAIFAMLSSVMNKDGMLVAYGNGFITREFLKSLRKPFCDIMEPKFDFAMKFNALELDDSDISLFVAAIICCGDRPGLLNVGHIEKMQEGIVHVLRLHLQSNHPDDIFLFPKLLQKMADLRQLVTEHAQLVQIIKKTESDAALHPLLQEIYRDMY
Description: (§1) This activity is determined with the aid of a reporter enzyme (luciferase) for the activation due to the compound via one of the PPAR receptors, and more particularly of the PPAR-α type.
(§2) The biological tests carried out corresponded to those described in the application. […] Thus, the activating power via PPAR-α, PPAR-γ or PPAR-δ of molecules was evaluated with a transactivation test in which HeLa cells were cotransfected with an expression vector encoding these receptors and a reporter plasmid containing a PPRE response element cloned upstream of a portion of a promoter of the SV40 virus and of the luciferase gene. The cotransfected cells were treated for 24 hours with the molecules to be tested and the activity of the luciferase was determined by luminescence.

PPAR-γ = molecular target: T2, PPAR-γ (Homo sapiens, UniProt P37231); experiment: transactivation test of PPAR-type receptors (luciferase reporter, cotransfected HeLa cells), PPAR-γ; conditions: HeLa cells cotransfected with PPAR-γ expression vector and PPRE-luciferase reporter, 24 hours, n.a. = not active; for AC50: concentration giving 50% of the activity of the reference molecule; for γ Ymax %: relative to Reference 2
T2 construct: expressed in transfected cells; host or cells: HeLa cells
T2 sequence (P37231 1-505): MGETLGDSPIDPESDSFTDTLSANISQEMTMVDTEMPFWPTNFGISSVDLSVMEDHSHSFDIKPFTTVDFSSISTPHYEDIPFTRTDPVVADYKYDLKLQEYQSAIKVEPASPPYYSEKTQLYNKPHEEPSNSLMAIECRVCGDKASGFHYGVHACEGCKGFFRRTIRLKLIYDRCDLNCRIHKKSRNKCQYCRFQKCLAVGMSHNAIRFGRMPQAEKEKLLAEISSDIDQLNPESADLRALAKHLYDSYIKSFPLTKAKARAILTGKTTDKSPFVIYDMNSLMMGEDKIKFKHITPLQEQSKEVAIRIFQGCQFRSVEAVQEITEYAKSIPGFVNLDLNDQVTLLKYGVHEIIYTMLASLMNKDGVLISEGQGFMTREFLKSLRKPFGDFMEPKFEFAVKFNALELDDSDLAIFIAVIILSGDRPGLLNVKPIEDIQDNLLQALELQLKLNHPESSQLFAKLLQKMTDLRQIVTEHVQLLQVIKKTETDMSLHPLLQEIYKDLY
Description: as §1, §2

PPAR-δ = molecular target: T3, PPAR-δ (Homo sapiens, UniProt Q03181); experiment: transactivation test of PPAR-type receptors (luciferase reporter, cotransfected HeLa cells), PPAR-δ; conditions: HeLa cells cotransfected with PPAR-δ expression vector and PPRE-luciferase reporter, 24 hours, n.a. = not active; for AC50: concentration giving 50% of the activity of the reference molecule; for δ Ymax %: relative to Reference 2
T3 construct: expressed in transfected cells; host or cells: HeLa cells
T3 sequence (Q03181 1-441): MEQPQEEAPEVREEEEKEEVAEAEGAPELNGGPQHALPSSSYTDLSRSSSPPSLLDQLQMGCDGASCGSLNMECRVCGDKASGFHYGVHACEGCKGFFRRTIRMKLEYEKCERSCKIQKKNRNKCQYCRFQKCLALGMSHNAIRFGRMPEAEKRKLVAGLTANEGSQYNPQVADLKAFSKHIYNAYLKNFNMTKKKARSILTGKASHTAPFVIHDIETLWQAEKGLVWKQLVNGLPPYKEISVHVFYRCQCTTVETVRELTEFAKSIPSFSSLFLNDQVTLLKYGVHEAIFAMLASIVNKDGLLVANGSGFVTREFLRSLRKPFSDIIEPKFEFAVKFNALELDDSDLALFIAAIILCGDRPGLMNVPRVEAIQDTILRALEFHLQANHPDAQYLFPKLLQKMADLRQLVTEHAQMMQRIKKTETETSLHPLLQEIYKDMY
Description: as §1, §2

AC50 (PPAR-α) [µM]	α Ymax % (PPAR-α) [%]	AC50 (PPAR-γ) [µM]	γ Ymax % (PPAR-γ) [%]	AC50 (PPAR-δ) [µM]	δ Ymax % (PPAR-δ) [%]	SMILES
2.9	91					CCCCCCCCSCC#CCSCC(=O)O [Example 8, 3,8-Dithia-5-hexadecynoic Acid]
1.5	142					CCCCCCCCCCC#CCSCC(=O)O [Example 10, 3-Thia-5-hexadecynoic Acid]
3	138					CCCCCC#CCC#CCC#CCSCC(=O)O [Example 21, 3-Thia-5,8,11-heptadecatriynoic Acid]
	100					Cc1cccc(Nc2cc(Cl)nc(SCC(=O)O)n2)c1C [Reference 1, [4-chloro-6-(2,3-dimethylphenylamino)pyrimidin-2-ylsulfanyl]acetic acid]

Second part, the molecule before the results:

SMILES	AC50 (PPAR-α) [µM]	α Ymax % (PPAR-α) [%]	AC50 (PPAR-γ) [µM]	γ Ymax % (PPAR-γ) [%]	AC50 (PPAR-δ) [µM]	δ Ymax % (PPAR-δ) [%]
CCCCCC#CCC#CCC#CCC#CCSCC(=O)O [Comparative Example 1, 3-thia-5,8,11,14-eicosatetraynoic acid]	4	128	3	83	7	125
CCCCCCCCC#CCC#CCC#CCSCC(=O)O [Comparative Example 2, 3-thia-5,8,11-eicosatriynoic acid]	5	112	4	58	11	74
CCCCCCCCC#CCC#CCSCC(=O)O [Example 14, 3-Thia-5,8-heptadecadiynoic Acid]	1	116				
